The source of these data is article PMC8319832, “Fine-Tuning of Alkaline Residues on the Hydrophilic Face Provides a Non-toxic Cationic α-Helical Antimicrobial Peptide Against Antibiotic-Resistant ESKAPE Pathogens” (Frontiers in Microbiology, 2021).

Data set [1] has as its system S. aureus ATCC29213. The data set is described as follows: MIC, broth dilution. Conditions: CLSI broth dilution, MHB, 6.25 × 10^5 cfu per ml, 37°C, 20 h, OD630, at least three repeats. In kind it is cell-based, Staphylococcus aureus. The procedure: All experiments were repeated at least three times.
To study the influence of physiological ions on the antimicrobial activities of the peptides, The MICs of the peptides were also determined against the standard bacterial strains cultured in MHB containing various salts at their physiological concentrations (150 mM NaCl, 4.5 mM KCl, 1 mM MgCl2, 2 mM CaCl2, 6 μM NH4HCO3, and 4 μM FeCl3) ([Ma et al., 2016]).
A general note: In broth dilution the organism is exposed to a series of concentrations in liquid medium.

Data set [2] concerns E. coli ATCC25922. The experiment in a line: MIC, broth dilution. In kind it is cell-based, Escherichia coli. Conditions: CLSI broth dilution, MHB, 6.25 × 10^5 cfu per ml, 37°C, 20 h, OD630, at least three repeats.
The test system of data set [3] is human red blood cells (hRBCs). The data set is described as follows: Hemolytic activity determination. The class given is cell-based. Conditions: hRBCs in 0.9% sodium chloride, 37°C, 1 h, OD540, 1% Triton X-100 = 100%, three independent experiments. The procedure: Fresh human red blood cells (hRBCs) were collected in a sterile borosilicate glass tube covered with sodium citrate as the anticoagulating agent. […] Two-fold dilutions of the peptides were prepared in 0.9% sodium chloride to 100 μl and mixed with equal volumn of hRBC suspension to final peptide concentrations ranging from 12.5 to 200 μg ml^–1. After co-incubation at 37°C for 1 h, the samples were centrifuged (2,000 × g, 4°C, 20 min), and the supernatant (100 μl) was taken for optical density (OD540) measurements (Asample). The hRBCs assayed with 0.9% sodium chloride (Ablank) or 1% Triton X-100 (Apositive) were applied as 0% and 100% hemolysis, respectively. Three independent experiments were performed and the percent hemolysis was calculated according to the following equation ([Yin et al., 2012]; [Li et al., 2016]):
Hemolysis(%)=100*(Asample-Ablank)/(Apositive-Ablank)

≈ marks a conversion by molar mass, not a printed value. Where a SMILES comes first, the peptide text is derived from it.

As usually defined, the MIC is the least concentration at which growth counts as inhibited. A high value points to weaker potency. As for `CC[C@H](C)[C@H](NC(=O)[C@H](CCCNC(=N)N)NC(=O)CNC(=O)[C@@H](NC(=O)[C@@H](N)Cc1ccccc1)[C@@H](C)CC)C(=O)N[C@@H](C)C(=O)N[C@@H](CCCNC(=N)N)C(=O)N[C@@H](CC(C)C)C(=O)N[C@@H](CC(C)C)C(=O)N[C@@H](CO)C(=O)N[C@@H](CCCCN)C(=O)N[C@H](C(=O)N[C@@H](Cc1ccccc1)C(N)=O)[C@@H](C)CC` [Kn2(A4R)] (H-FIGRIARLLSKIF-NH2), the minimum inhibitory concentration (MIC) was 5 µg/mL (≈ 3.26 µM) in data set [1] and 10 µg/mL (≈ 6.52 µM) in data set [2]. The “percent hRBC hemolysis” value in data set [3] (peptide 25 μg ml^–1) is on record as 100%.
For the compound `CC[C@H](C)[C@H](NC(=O)[C@H](CCCNC(=N)N)NC(=O)[C@H](CCCCN)NC(=O)[C@@H](NC(=O)[C@@H](N)Cc1ccccc1)[C@@H](C)CC)C(=O)N[C@@H](C)C(=O)N[C@@H](CCCNC(=N)N)C(=O)N[C@@H](CC(C)C)C(=O)N[C@@H](CC(C)C)C(=O)N[C@@H](CCCCN)C(=O)N[C@@H](CCCCN)C(=O)N[C@H](C(=O)N[C@@H](Cc1ccccc1)C(N)=O)[C@@H](C)CC` [Kn2-7(R10K)] (H-FIKRIARLLKKIF-NH2), the MIC in data set [1] and in data set [2] was 5 µg/mL (≈ 3.04 µM) in each case.
`CC[C@H](C)[C@H](NC(=O)[C@H](CCCNC(=N)N)NC(=O)[C@H](CCCCN)NC(=O)[C@@H](NC(=O)[C@@H](N)Cc1ccccc1)[C@@H](C)CC)C(=O)N[C@@H](C)C(=O)N[C@@H](CCCNC(=N)N)C(=O)N[C@@H](CC(C)C)C(=O)N[C@@H](CC(C)C)C(=O)N[C@@H](CO)C(=O)N[C@@H](CCCCN)C(=O)N[C@H](C(=O)N[C@@H](Cc1ccccc1)C(N)=O)[C@@H](C)CC` [Kn2(G3K_A4R)] (H-FIKRIARLLSKIF-NH2): the MIC in data set [1] turned out to be 5 µg/mL (≈ 3.12 µM); in data set [2], 10 µg/mL (≈ 6.23 µM). Moreover, the “percent hRBC hemolysis” value in data set [3] (peptide 25 μg ml^–1) was determined as 8.3%.
`CC[C@H](C)[C@H](NC(=O)[C@H](C)NC(=O)CNC(=O)[C@@H](NC(=O)[C@@H](N)Cc1ccccc1)[C@@H](C)CC)C(=O)N[C@@H](C)C(=O)N[C@@H](CCCNC(=N)N)C(=O)N[C@@H](CC(C)C)C(=O)N[C@@H](CC(C)C)C(=O)N[C@@H](CCCNC(=N)N)C(=O)N[C@@H](CCCCN)C(=O)N[C@H](C(=O)N[C@@H](Cc1ccccc1)C(N)=O)[C@@H](C)CC` [Kn2(S10R)] (H-FIGAIARLLRKIF-NH2): the MIC in data set [1] worked out at 10 µg/mL (≈ 6.59 µM); in data set [2] it was 20 µg/mL (≈ 13.2 µM). Besides, the “percent hRBC hemolysis” value in data set [3] (peptide 25 μg ml^–1) turned out to be 50.9%.
In the case of `CC[C@H](C)[C@H](NC(=O)[C@H](CCCNC(=N)N)NC(=O)[C@H](CCCCN)NC(=O)[C@@H](NC(=O)[C@@H](N)Cc1ccccc1)[C@@H](C)CC)C(=O)N[C@@H](C)C(=O)N[C@@H](CCCCN)C(=O)N[C@@H](CC(C)C)C(=O)N[C@@H](CC(C)C)C(=O)N[C@@H](CCCCN)C(=O)N[C@@H](CCCCN)C(=O)N[C@H](C(=O)N[C@@H](Cc1ccccc1)C(N)=O)[C@@H](C)CC` [Kn2-7(R7K_R10K)] (H-FIKRIAKLLKKIF-NH2), the MIC in data set [1] came out at 5 µg/mL (≈ 3.09 µM); in data set [2], 20 µg/mL (≈ 12.4 µM).
In the case of `CC[C@H](C)[C@H](NC(=O)[C@H](CCCCN)NC(=O)[C@H](CCCCN)NC(=O)[C@@H](NC(=O)[C@@H](N)Cc1ccccc1)[C@@H](C)CC)C(=O)N[C@@H](C)C(=O)N[C@@H](CCCCN)C(=O)N[C@@H](CC(C)C)C(=O)N[C@@H](CC(C)C)C(=O)N[C@@H](CCCNC(=N)N)C(=O)N[C@@H](CCCCN)C(=O)N[C@H](C(=O)N[C@@H](Cc1ccccc1)C(N)=O)[C@@H](C)CC` [Kn2-7(R4K_R7K)] (H-FIKKIAKLLRKIF-NH2), the MIC in data set [1] was found to be 5 µg/mL (≈ 3.09 µM); in data set [2], 10 µg/mL (≈ 6.18 µM).
In the case of `CC[C@H](C)[C@H](NC(=O)[C@H](CCCNC(=N)N)NC(=O)[C@H](CCCCN)NC(=O)[C@@H](NC(=O)[C@@H](N)Cc1ccccc1)[C@@H](C)CC)C(=O)N[C@@H](C)C(=O)N[C@@H](CCCNC(=N)N)C(=O)N[C@@H](CC(C)C)C(=O)N[C@@H](CC(C)C)C(=O)N[C@@H](CCCNC(=N)N)C(=O)N[C@@H](CCCNC(=N)N)C(=O)N[C@H](C(=O)N[C@@H](Cc1ccccc1)C(N)=O)[C@@H](C)CC` [Kn2-7(K11R)] (H-FIKRIARLLRRIF-NH2), the minimal inhibitory concentration (MIC) was 5 µg/mL (≈ 2.94 µM) in data set [1] and 10 µg/mL (≈ 5.88 µM) in data set [2].
For `CC[C@H](C)[C@H](NC(=O)[C@H](C)NC(=O)[C@H](CCCCN)NC(=O)[C@@H](NC(=O)[C@@H](N)Cc1ccccc1)[C@@H](C)CC)C(=O)N[C@@H](C)C(=O)N[C@@H](CCCNC(=N)N)C(=O)N[C@@H](CC(C)C)C(=O)N[C@@H](CC(C)C)C(=O)N[C@@H](CCCNC(=N)N)C(=O)N[C@@H](CCCCN)C(=O)N[C@H](C(=O)N[C@@H](Cc1ccccc1)C(N)=O)[C@@H](C)CC` [Kn2(G3K_S10R)] (H-FIKAIARLLRKIF-NH2), the MIC in data set [1] was determined as 10 µg/mL (≈ 6.3 µM); in data set [2] it was 20 µg/mL (≈ 12.6 µM). Besides, in data set [3] (peptide 25 μg ml^–1), the “percent hRBC hemolysis” value amounted to 77.5%.
As to `CC[C@H](C)[C@H](NC(=O)[C@H](CCCNC(=N)N)NC(=O)[C@H](CCCCN)NC(=O)[C@@H](NC(=O)[C@@H](N)Cc1ccccc1)[C@@H](C)CC)C(=O)N[C@@H](C)C(=O)N[C@@H](CCCCN)C(=O)N[C@@H](CC(C)C)C(=O)N[C@@H](CC(C)C)C(=O)N[C@@H](CCCNC(=N)N)C(=O)N[C@@H](CCCCN)C(=O)N[C@H](C(=O)N[C@@H](Cc1ccccc1)C(N)=O)[C@@H](C)CC` [Kn2-7(R7K)] (H-FIKRIAKLLRKIF-NH2), the MIC worked out at 5 µg/mL (≈ 3.04 µM) in data set [1] and 20 µg/mL (≈ 12.2 µM) in data set [2].
Regarding `CC[C@H](C)[C@H](NC(=O)[C@H](C)NC(=O)[C@H](CCCCN)NC(=O)[C@@H](NC(=O)[C@@H](N)Cc1ccccc1)[C@@H](C)CC)C(=O)N[C@@H](C)C(=O)N[C@@H](CCCNC(=N)N)C(=O)N[C@@H](CC(C)C)C(=O)N[C@@H](CC(C)C)C(=O)N[C@@H](CO)C(=O)N[C@@H](CCCCN)C(=O)N[C@H](C(=O)N[C@@H](Cc1ccccc1)C(N)=O)[C@@H](C)CC` [Kn2(G3K)] (H-FIKAIARLLSKIF-NH2), the figures for the MIC in data set [1] and in data set [2] were 5 µg/mL (≈ 3.29 µM) and 40 µg/mL (≈ 26.3 µM), respectively. Also, the “percent hRBC hemolysis” value in data set [3] (peptide 25 μg ml^–1) stood at 69.0%.
For the compound `CC[C@H](C)[C@H](NC(=O)[C@H](CCCNC(=N)N)NC(=O)[C@H](CCCNC(=N)N)NC(=O)[C@@H](NC(=O)[C@@H](N)Cc1ccccc1)[C@@H](C)CC)C(=O)N[C@@H](C)C(=O)N[C@@H](CCCNC(=N)N)C(=O)N[C@@H](CC(C)C)C(=O)N[C@@H](CC(C)C)C(=O)N[C@@H](CCCNC(=N)N)C(=O)N[C@@H](CCCCN)C(=O)N[C@H](C(=O)N[C@@H](Cc1ccccc1)C(N)=O)[C@@H](C)CC` [Kn2-7(K3R)] (H-FIRRIARLLRKIF-NH2), the MIC in data set [1] amounted to 5 µg/mL (≈ 2.94 µM); in data set [2], 20 µg/mL (≈ 11.8 µM). For the same compound, the “percent hRBC hemolysis” value in data set [3] (peptide 100 μg ml^–1) is reported as 89.3%.
In the case of `CC[C@H](C)[C@H](NC(=O)[C@H](CCCCN)NC(=O)[C@H](CCCCN)NC(=O)[C@@H](NC(=O)[C@@H](N)Cc1ccccc1)[C@@H](C)CC)C(=O)N[C@@H](C)C(=O)N[C@@H](CCCNC(=N)N)C(=O)N[C@@H](CC(C)C)C(=O)N[C@@H](CC(C)C)C(=O)N[C@@H](CCCNC(=N)N)C(=O)N[C@@H](CCCCN)C(=O)N[C@H](C(=O)N[C@@H](Cc1ccccc1)C(N)=O)[C@@H](C)CC` [Kn2-7(R4K)] (H-FIKKIARLLRKIF-NH2), the MIC in data set [1] and in data set [2] was 5 µg/mL (≈ 3.04 µM) throughout.
For `CC[C@H](C)[C@H](NC(=O)[C@H](CCCCN)NC(=O)[C@H](CCCCN)NC(=O)[C@@H](NC(=O)[C@@H](N)Cc1ccccc1)[C@@H](C)CC)C(=O)N[C@@H](C)C(=O)N[C@@H](CCCNC(=N)N)C(=O)N[C@@H](CC(C)C)C(=O)N[C@@H](CC(C)C)C(=O)N[C@@H](CCCCN)C(=O)N[C@@H](CCCCN)C(=O)N[C@H](C(=O)N[C@@H](Cc1ccccc1)C(N)=O)[C@@H](C)CC` [Kn2-7(R4K_R10K)] (H-FIKKIARLLKKIF-NH2), the figures for the MIC in data set [1] and in data set [2] were 2.5 µg/mL (≈ 1.55 µM) and 5 µg/mL (≈ 3.09 µM), respectively.
Consider `CC[C@H](C)[C@H](NC(=O)[C@H](CCCNC(=N)N)NC(=O)CNC(=O)[C@@H](NC(=O)[C@@H](N)Cc1ccccc1)[C@@H](C)CC)C(=O)N[C@@H](C)C(=O)N[C@@H](CCCNC(=N)N)C(=O)N[C@@H](CC(C)C)C(=O)N[C@@H](CC(C)C)C(=O)N[C@@H](CCCNC(=N)N)C(=O)N[C@@H](CCCCN)C(=O)N[C@H](C(=O)N[C@@H](Cc1ccccc1)C(N)=O)[C@@H](C)CC` [Kn2(A4R_S10R)] (H-FIGRIARLLRKIF-NH2), for which the results for the MIC in data set [1] and in data set [2] were 10 µg/mL (≈ 6.24 µM) and 20 µg/mL (≈ 12.5 µM), respectively. Also, the “percent hRBC hemolysis” value in data set [3] (peptide 25 μg ml^–1) was 18.0%.
